According to ChEMBL document CHEMBL5370603, “N-(2-Aminophenyl)-benzamide Inhibitors of Class I HDAC Enzymes with Antiproliferative and Antifibrotic Activity” (J Med Chem, 2023):
Calls of active or inactive are those of the source. No cut-off for these calls is given here.

Experiments:
Histone deacetylase 3 = Histone deacetylase 3 (Homo sapiens, UniProt O15379); experiment: Inhibition of human recombinant HDAC3 using Ac-Leu-Gly-Lys(Ac)-AMC as substrate preincubated with enzyme for 30 mins followed by substrate addition and measured after 90 mins by fluorescence based analysis
Mus musculus [1] = experiment: Anti-fibrotic activity against BLM-induced pulmonary fibrosis C57BL/6 mouse model assessed as reduction in pulmonary inflammation by measuring decrease in cell number infiltration in BALF at 30 mg/kg, ip bid for 15 days starting from 1 day before BLM challenge by hematocytometer analysis; format: functional, organism-based; settings: time 15.0 day
[2] = molecular target: T1, Protein deacetylase HDAC6 (Homo sapiens) (UniProt Q9UBN7); experiment: Inhibition of HDAC6 in human A549 cells assessed as increase in acetylated alpha-tubulin level at 5 uM incubated for 48 hrs by immunoblot analysis; format: cell-based
T1 sequence (whole entry): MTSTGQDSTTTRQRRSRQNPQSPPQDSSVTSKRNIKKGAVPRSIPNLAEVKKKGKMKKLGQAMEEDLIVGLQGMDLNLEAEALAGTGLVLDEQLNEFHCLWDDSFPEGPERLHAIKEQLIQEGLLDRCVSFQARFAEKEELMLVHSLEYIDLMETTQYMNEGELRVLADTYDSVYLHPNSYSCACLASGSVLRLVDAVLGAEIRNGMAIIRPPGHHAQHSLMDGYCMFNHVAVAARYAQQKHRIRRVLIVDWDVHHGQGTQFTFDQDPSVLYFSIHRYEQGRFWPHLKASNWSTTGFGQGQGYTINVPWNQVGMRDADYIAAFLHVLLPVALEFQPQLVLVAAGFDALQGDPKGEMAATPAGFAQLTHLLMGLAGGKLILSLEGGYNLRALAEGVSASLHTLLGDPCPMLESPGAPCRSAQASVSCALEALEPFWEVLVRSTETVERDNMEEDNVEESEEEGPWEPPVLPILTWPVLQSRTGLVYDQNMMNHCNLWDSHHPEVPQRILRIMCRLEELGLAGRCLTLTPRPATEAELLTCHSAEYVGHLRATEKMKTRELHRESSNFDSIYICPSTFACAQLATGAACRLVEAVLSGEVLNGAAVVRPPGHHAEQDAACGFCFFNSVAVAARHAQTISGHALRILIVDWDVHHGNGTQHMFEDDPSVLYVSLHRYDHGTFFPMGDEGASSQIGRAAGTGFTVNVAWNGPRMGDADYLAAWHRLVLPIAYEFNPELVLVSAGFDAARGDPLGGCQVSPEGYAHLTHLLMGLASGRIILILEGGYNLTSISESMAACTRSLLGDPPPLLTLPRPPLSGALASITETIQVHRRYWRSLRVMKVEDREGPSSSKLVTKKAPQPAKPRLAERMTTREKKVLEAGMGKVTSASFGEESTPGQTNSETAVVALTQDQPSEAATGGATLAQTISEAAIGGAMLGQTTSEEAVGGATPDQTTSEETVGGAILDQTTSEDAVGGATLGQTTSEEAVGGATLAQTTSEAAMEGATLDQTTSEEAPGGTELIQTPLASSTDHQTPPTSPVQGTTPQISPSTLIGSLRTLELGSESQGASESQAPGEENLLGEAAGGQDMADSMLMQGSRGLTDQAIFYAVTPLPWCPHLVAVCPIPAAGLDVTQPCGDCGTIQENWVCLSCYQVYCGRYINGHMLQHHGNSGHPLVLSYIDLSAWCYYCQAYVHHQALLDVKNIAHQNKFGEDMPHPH

Fibroblast = experiment: Anti-fibrotic activity in human primary lung fibroblast assessed as inhibition of TGFbeta1-induced COL1A1 mRNA expression at 5 to 10 uM pretreated for 1 hr followed by TGFbeta1 stimulation and measured after 24 hrs by qRT-PCR analysis; format: functional, cell-based; settings: dose 5-10 µM, time 25.0 hrs
Histone deacetylase 8 = molecular target: T2, Histone deacetylase 8 (Homo sapiens, UniProt Q9BY41); experiment: Inhibition of C-terminal His-tagged human recombinant full length HDAC8 (1 to 377 residues) expressed in Sf9 cells using Ac-Leu-Gly-Lys(trifluoroAc)-AMC as substrate preincubated with enzyme for 30 mins followed by substrate addition and measured after 90 mins by fluorescence based analysis
T2 sequence (Q9BY41 whole entry): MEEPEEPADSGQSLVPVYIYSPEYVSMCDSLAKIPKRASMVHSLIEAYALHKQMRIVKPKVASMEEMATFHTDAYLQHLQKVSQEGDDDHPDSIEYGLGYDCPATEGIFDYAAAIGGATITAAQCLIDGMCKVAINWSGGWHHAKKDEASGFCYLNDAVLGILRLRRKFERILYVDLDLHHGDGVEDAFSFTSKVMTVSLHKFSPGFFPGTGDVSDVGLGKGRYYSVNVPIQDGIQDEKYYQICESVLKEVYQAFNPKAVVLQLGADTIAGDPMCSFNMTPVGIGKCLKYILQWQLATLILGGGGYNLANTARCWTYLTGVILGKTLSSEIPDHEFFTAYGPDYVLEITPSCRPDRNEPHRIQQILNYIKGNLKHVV

A549 = experiment: Antiproliferative activity against human A549 cells assessed as inhibition of cell growth incubated for 72 hrs by MTT assay; format: functional, cell-based; settings: A549, 72 h
Mus musculus [3] = experiment: Anti-fibrotic activity against BLM-induced pulmonary fibrosis C57BL/6 mouse model assessed as reduction in fibrotic masses in lungs at 30 mg/kg, ip bid for 15 days starting from 1 day before BLM challenge by Hematoxylin-Eosin staining based analysis; format: functional, organism-based; settings: time 15.0 day
Histone deacetylase 1 = Histone deacetylase 1 (Homo sapiens, UniProt Q13547); experiment: Inhibition of human recombinant HDAC1 using Ac-Leu-Gly-Lys(Ac)-AMC as substrate preincubated with enzyme for 30 mins followed by substrate addition and measured after 90 mins by fluorescence based analysis
Mus musculus [4] = experiment: Anti-fibrotic activity against BLM-induced pulmonary fibrosis C57BL/6 mouse model assessed as reduction in Col1a1 gene expression in lungs at 30 mg/kg, ip bid for 15 days starting from 1 day before BLM challenge by qRT-PCR analysis; format: functional, organism-based; settings: time 15.0 day
[5] = molecular target: T3, Protein deacetylase HDAC6 (Homo sapiens, UniProt Q9UBN7); experiment: Inhibition of C-terminal FLAG-tagged human recombinant full length HDAC6 expressed in baculovirus expression system using Boc-Lys(Ac)-AMC as substrate preincubated with enzyme for 15 mins followed by substrate addition and measured after 60 mins by fluorescence based analysis
T3 sequence (Q9UBN7 whole entry): T1 sequence (whole entry)

SF-268 = experiment: Antiproliferative activity against human SF-268 cells assessed as inhibition of cell growth incubated for 72 hrs by MTT assay; format: functional, cell-based; settings: SF-268, 72 h
Histone deacetylase 4 = Histone deacetylase 4 (Homo sapiens, UniProt P56524); experiment: Inhibition of N-terminal GST-tagged/C-terminal His tagged human recombinant HDAC4 (627 to 1084 residues) expressed in baculovirus-infected Sf9 cells using Ac-Leu-Gly-Lys(trifluoroAc)-AMC as substrate preincubated with enzyme for 15 mins followed by substrate addition and measured after 60 mins by fluorescence based analysis
[6] = molecular target: T4, Class 1 histone deacetylase (Homo sapiens) (UniProt Q13547+O15379+Q92769+Q9BY41); experiment: Inhibition of class I HDAC in human A549 cells assessed as increase in histone H3 acetylation at 5 uM incubated for 48 hrs by immunoblot analysis; format: cell-based
[7] = Toxicity against human primary lung fibroblasts assessed as effect on cell viability upto 20 uM incubated for 72 hrs by MTT assay; format: cell-based; settings: fibroblast
Mus musculus [8] = experiment: Anti-fibrotic activity against BLM-induced pulmonary fibrosis C57BL/6 mouse model assessed as reduction in collagen deposition in lungs at 30 mg/kg, ip bid for 15 days starting from 1 day before BLM challenge by Sirius Red staining based analysis; format: functional, organism-based; settings: time 15.0 day
[9] = molecular target: T4, Class 1 histone deacetylase (Homo sapiens); experiment: Inhibition of class I HDAC in human A549 cells assessed as downregulation of EGFR protein expression at 5 uM incubated for 48 hrs by western blot analysis; format: cell-based
Mus musculus [10] = experiment: Anti-fibrotic activity against BLM-induced pulmonary fibrosis C57BL/6 mouse model assessed as reduction in pulmonary edema by measuring decrease in total protein concentration in BALF at 30 mg/kg, ip bid for 15 days starting from 1 day before BLM challenge by Bradford assay; format: functional, organism-based; settings: time 15.0 day
Mus musculus [11] = experiment: Anti-fibrotic activity against BLM-induced pulmonary fibrosis C57BL/6 mouse model assessed as reduction in soluble collagen protein level in BALF at 30 mg/kg, ip bid for 15 days starting from 1 day before BLM challenge by Direct Red assay; format: functional, organism-based; settings: time 15.0 day
Caco-2 = experiment: Antiproliferative activity against human Caco-2 cells assessed as inhibition of cell growth incubated for 72 hrs by MTT assay; format: functional, cell-based; settings: Caco-2, 72 h
Histone deacetylase 2 = Histone deacetylase 2 (Homo sapiens, UniProt Q92769); experiment: Inhibition of human recombinant HDAC2 using Ac-Leu-Gly-Lys(Ac)-AMC as substrate preincubated with enzyme for 30 mins followed by substrate addition and measured after 90 mins by fluorescence based analysis
Sequence of Histone deacetylase 2 (Q92769 whole entry): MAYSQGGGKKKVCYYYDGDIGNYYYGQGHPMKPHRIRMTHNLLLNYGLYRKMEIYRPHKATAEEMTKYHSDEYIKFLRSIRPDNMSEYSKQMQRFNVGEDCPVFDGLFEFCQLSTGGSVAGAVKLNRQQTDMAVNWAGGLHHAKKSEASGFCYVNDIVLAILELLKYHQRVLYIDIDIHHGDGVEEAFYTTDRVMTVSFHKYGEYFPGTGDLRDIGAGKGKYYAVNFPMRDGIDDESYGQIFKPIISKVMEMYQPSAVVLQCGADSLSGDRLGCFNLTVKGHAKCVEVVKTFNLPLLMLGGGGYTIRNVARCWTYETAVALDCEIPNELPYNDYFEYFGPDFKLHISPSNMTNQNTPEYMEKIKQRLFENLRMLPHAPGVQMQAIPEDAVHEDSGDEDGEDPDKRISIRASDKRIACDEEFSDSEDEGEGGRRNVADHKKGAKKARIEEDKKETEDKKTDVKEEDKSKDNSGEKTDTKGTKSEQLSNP

Sequence of Histone deacetylase 1 (Q13547 whole entry): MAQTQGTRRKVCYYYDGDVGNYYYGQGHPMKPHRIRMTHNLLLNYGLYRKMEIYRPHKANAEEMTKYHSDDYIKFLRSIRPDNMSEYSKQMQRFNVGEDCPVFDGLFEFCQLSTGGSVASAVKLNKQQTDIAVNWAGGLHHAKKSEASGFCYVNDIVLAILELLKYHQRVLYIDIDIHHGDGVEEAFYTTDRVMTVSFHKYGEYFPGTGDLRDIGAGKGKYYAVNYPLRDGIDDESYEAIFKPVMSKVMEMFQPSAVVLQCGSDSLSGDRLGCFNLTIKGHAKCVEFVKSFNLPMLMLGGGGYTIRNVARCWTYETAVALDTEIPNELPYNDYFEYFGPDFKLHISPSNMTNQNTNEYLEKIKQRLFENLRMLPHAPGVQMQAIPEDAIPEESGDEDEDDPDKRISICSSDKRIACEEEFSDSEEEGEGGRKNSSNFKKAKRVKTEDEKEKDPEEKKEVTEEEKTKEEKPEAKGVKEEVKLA
Sequence of Histone deacetylase 3 (O15379 whole entry): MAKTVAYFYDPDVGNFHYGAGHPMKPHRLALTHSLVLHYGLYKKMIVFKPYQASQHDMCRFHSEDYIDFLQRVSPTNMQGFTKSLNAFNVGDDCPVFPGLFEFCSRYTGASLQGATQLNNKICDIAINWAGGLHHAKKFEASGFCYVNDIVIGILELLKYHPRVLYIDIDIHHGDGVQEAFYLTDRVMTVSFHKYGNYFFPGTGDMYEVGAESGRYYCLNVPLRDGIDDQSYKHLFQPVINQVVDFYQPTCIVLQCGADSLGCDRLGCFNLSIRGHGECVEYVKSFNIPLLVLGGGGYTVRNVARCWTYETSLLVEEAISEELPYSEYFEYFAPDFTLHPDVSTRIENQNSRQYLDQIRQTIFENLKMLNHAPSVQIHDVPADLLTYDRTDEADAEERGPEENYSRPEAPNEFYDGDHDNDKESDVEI
Sequence of Histone deacetylase 4 (P56524 whole entry, the tested form may be a part): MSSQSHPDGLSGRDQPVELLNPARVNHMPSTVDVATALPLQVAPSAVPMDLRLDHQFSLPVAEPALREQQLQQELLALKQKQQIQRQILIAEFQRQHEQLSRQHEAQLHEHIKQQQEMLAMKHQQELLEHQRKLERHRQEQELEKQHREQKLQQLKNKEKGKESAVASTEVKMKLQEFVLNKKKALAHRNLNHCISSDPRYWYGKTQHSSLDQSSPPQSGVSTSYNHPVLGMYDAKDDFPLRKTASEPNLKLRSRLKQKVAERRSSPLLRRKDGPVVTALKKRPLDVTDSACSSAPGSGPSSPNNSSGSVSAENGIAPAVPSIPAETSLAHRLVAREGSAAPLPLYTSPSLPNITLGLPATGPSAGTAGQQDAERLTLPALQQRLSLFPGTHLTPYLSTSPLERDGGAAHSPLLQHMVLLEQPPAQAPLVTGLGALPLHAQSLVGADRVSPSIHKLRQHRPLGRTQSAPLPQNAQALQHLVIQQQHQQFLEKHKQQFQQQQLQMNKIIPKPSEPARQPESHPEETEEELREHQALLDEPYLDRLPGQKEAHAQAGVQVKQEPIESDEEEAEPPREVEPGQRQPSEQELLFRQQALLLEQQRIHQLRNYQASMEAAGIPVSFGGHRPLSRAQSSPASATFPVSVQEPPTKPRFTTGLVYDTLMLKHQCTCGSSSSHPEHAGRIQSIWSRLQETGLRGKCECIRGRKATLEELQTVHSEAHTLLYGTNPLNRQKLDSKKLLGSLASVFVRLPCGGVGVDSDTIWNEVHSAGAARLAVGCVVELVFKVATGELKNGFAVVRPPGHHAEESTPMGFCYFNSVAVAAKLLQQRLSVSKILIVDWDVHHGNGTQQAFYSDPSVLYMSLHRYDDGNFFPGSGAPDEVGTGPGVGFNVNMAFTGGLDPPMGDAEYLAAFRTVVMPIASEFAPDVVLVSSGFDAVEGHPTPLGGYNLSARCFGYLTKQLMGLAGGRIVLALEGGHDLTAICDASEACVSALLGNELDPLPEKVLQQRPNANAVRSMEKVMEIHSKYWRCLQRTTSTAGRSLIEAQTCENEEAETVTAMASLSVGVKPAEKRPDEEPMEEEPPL

SMILES: Cl.Cl.Nc1ccccc1NC(=O)c1ccc(COc2ccc(CNC(=O)[C@H]3CCCN3)cc2)cc1
- IC50 (Histone deacetylase 3): 0.139 µM
- Activity (Mus musculus [1]): Active
- inhibition [2]: inactive
- Activity (Fibroblast): Active
- IC50 (Histone deacetylase 8): > 10 µM
- IC50 (A549): 6 µM
- Activity (Mus musculus [3]): Active
- IC50 (Histone deacetylase 1): 0.259 µM
- Activity (Mus musculus [4]): Active
- IC50 [5]: > 10 µM
- IC50 (SF-268): 3.1 µM
- IC50 (Histone deacetylase 4): > 100 µM
- inhibition [6]: Active
- Activity [7]: Non-Toxic
- Activity (Mus musculus [8]): Active
- inhibition [9]: Active
- Activity (Mus musculus [10]): Active
- Activity (Mus musculus [11]): Active

SMILES: Nc1ccccc1NC(=O)c1ccc(COc2ccc(CNC(=O)[C@@H]3CCC(=O)N3Cc3ccccc3)cc2)cc1
- IC50 (Histone deacetylase 3): 0.361 µM
- Activity (Mus musculus [1]): Active
- IC50 (Caco-2): 1.9 µM
- Activity (Fibroblast): Active
- IC50 (Histone deacetylase 8): > 10 µM
- IC50 (A549): 6.8 µM
- Activity (Mus musculus [3]): Active
- IC50 (Histone deacetylase 1): 0.1 µM
- Activity (Mus musculus [4]): Active
- IC50 [5]: > 100 µM
- IC50 (SF-268): 4.8 µM
- IC50 (Histone deacetylase 4): > 100 µM
- Activity [7]: Non-Toxic
- Activity (Mus musculus [8]): Active
- Activity (Mus musculus [10]): Active
- IC50 (Histone deacetylase 2): 0.116 µM
- Activity (Mus musculus [11]): Active
